# From patent US8895717B2, “Delivery of siRNA by neutral lipid compositions” (The Board of Regents of the University of Texas System, priority 2005, dated 2014)
# d = 2'-deoxy (DNA); r = 2'-OH (RNA)
# Tests used:
# Murine FAK = assay: FAK siRNA treatment of murine endothelial cells; format: cell-based, mouse; conditions: murine endothelial cells from the ovary of ImmortoMice
# Text: To determine potential mechanisms underlying the efficacy of anti-FAK based therapy, its effects on several biological endpoints were examined, including angiogenesis (MVD), proliferation (PCNA), and apoptosis (TUNEL). Due to growing evidence related to FAK and tumor angiogenesis (Kornberg et al., 2004; Mitra et al., 2005). The inventors evaluated vessel density (FIG. 14B) in the tumors harvested from the studies described above. […] To determine if FAK siRNA mediated in vivo effects on endothelial cells were direct, the inventors treated murine endothelial cells isolated from the ovary of ImmortoMice (H-2k(b)-ts A58) (Langley et al., 2003) with FAK siRNA. Murine FAK levels were not altered by the FAK siRNA used for the in vivo studies (data not shown).
# HeyA8-MDR cells [1] = assay: In vivo therapy with DOPC-FAK siRNA, HeyA8-MDR model; design: species or system nude mice; conditions: for Incidence (%) / No. Nodules: siRNA in DOPC twice weekly, docetaxel 50 μg weekly
# Protocol: (§1) siRNA for in vivo delivery was incorporated into the phospholipid 1,2-dioleoyl-sn-glycero-3-phosphatidylcholine (DOPC). DOPC and siRNA were mixed in the presence of excess tertiary-butanol at a ratio of […], as previously described (Landen et al., 2005). Tween-20 was added to the mixture at a ratio of 1:19. The mixture was vortexed, frozen in an acetone/dry ice bath, and lyophilized. Before in vivo administration, this preparation was hydrated with normal (0.9%) saline at a concentration of 15 μg/ml to achieve the desired dose of 150-200 μl per injection. To estimate the quantity of siRNA not taken up by liposomes free siRNA was separated from liposomes by using filter units with a 30,000 nominal molecular weight limit (Millipore Corp, Billerica, Mass.). The liposomal suspension was added to the filters and centrifuged at 5,000 g for 40 min at room temperature. Fractions were collected, the material trapped in the filter was reconstituted with 0.9% saline, and the amount of siRNA in the collected fraction and eluent were measured by spectrophotometry.
# (§2) To produce tumors, SKOV3ip1, Hey A8-MDR cells (1×10^6 cells/0.2 ml of HBSS) and Hey A8 cells (2.5×10^5 cells/0.2 ml of HBSS) were injected interperitoneally (i.p.) into the mice. For in vivo injections, cells were trypsinized and centrifuged at 1000 rpm for 7 minutes at 4° C., washed twice with PBS and reconstituted in serum-free Hank's balanced salt solution (HBSS, Life Technologies, Carlsbad, Calif.). Only single-cell suspensions with >95% viability, as determined by trypan blue exclusion, were used for the in vivo injections. Mice (n=10 per group) were monitored for adverse effects of therapy and were sacrificed on day 35 (SKOV3ip1) or day 28 (HeyA8 or HeyA8-MDR) or when any of the mice began to appear moribund. Mouse weight, tumor weight, and tumor distribution were recorded. Tissue specimens were snap frozen for lysate preparation, fixed in formalin for paraffin embedding or frozen on OCT compound (Miles, Inc., Elkhart, Ind.) for frozen slide preparation.
# (§3) Based on the results of preliminary dose-response studies, a series of three separate therapy studies were initiated using the optimal FAK siRNA dosage. Tumor cells were injected i.p. and 7 days later, the mice were randomly assigned to five treatment groups: empty liposome twice weekly, non-specific control […] siRNA (3 μg) twice weekly, control FAK siRNA (3 μg) twice weekly in combination with 50 μg docetaxel weekly, FAK siRNA twice weekly and FAK siRNA (3 μg) twice weekly in addition to 50 μg docetaxel weekly.
# Chemotherapy-resistance is a common clinical problem in the management of ovarian carcinoma. Despite high response rates with initial therapy, most patients develop recurrent tumors that are resistant to taxane and platinum chemotherapy (McGuire et al., 1996). […] Consequently FAK downregulation and its effects on sensitization of resistant tumors to chemotherapy, using the HeyA8-MDR cell line (FIG. 13C) was assessed. Therapy was started 7 days after injection of tumor cells into nude mice according to the 5 groups outlined above.
# SKOV3ip1 cells = assay: In vivo therapy with DOPC-FAK siRNA, SKOV3ip1 model; design: species or system nude mice; conditions: for Incidence (%) / No. Nodules: siRNA in DOPC twice weekly, docetaxel 50 μg weekly
# Protocol: as §1, §2, §3
# The SKOV3ip1 or HeyA8 ovarian cancer cells were implanted into the peritoneal cavity of athymic nude mice for experiments designed to test the therapeutic potential of FAK-targeted inhibition of gene expression. Seven days later, therapy was started according to the following five treatment groups: 1) empty liposomes; 2) non-specific siRNA-DOPC; 3) docetaxel plus non-specific siRNA-DOPC; 4) FAK targeted siRNA-DOPC; and 5) docetaxel plus FAK-targeted siRNA-DOPC. The animals were sacrificed after 4 weeks of therapy and a necropsy was performed. The data for these therapies' effects on SKOV3ip1 and HeyA8 are summarized in FIGS. 6A and 6B, respectively. […] Treatment with FAK siRNA alone or docetaxel plus control siRNA were effective in inhibiting tumor growth (54 to 74%) in both cell lines compared with control (FIG. 13).
# SKOV3 cells [2] = assay: Cytotoxicity assay (MTT), SKOV3; format: cell-based, human
# Protocol: (§4) The medium was exchanged after 48 hours with increasing concentrations of docetaxel (obtained from Aventis Pharma, Bridgewater, N.J.) dissolved in ethanol (final concentration range, 0.1-10,000 nmol/L prepared in medium) or cisplatin (purchased from LKT Laboratories, Inc., St. Paul, Minn.) dissolved in water. After a 96-hour incubation, 50 μL of 0.15% 3-(4,5-dimethylthiazol-2-yl)-2,5-diphenyltetrazolium bromide was added to each well and incubated for 2 hours. The supernatant was removed, and cells were dissolved in 100 μL DMSO. The absorbance at 570 nm was recorded using a FALCON microplate reader (Becton Dickinson Labware, Bedford, Mass.), and cell survival expressed as a percent increase or decrease above control conditions, after subtracting blank A570 readings. The IC50 concentration was determined by finding the A570 reading midpoint between maximal and minimal readings and finding the chemotherapy concentration that intersects the growth curve at that A570 reading.
# HeyA8-MDR cells [3] = assay: Cytotoxicity assay (MTT), HeyA8-MDR; format: cell-based, human; conditions: HeyA8-MDR; siRNA 48 hours before docetaxel
# Protocol: as §4
# SKOV3 cells [4] = assay: TUNEL apoptosis assay, SKOV3; format: cell-based, human; conditions: sensitive and resistant cell lines
# Protocol: Terminal deoxynucleotidyl transferase-mediated nick end labeling-positive cells were detected using Dead End Fluorometric terminal deoxynucleotidyl transferase-mediated nick end labeling system (APO-DIRECT, BD Biosciences/PharMingen, San Diego, Calif.) according to the manufacturer's instructions. […] Cells were fixed with 4% paraformaldehyde solution for 25 minutes on ice. Intracellular DNA fragments were then labeled by exposing cells to fluorescein-12-dUTP, treated with propidium iodide and RNaseA solution, and analyzed by flow cytometry (EPICS XL, Beckman Coulter, Miami, Fla.). The percentages of apoptotic cells were averaged over three consecutive experiments.
Substance,Murine FAK levels (Murine FAK),reduction in tumor growth compared to control (HeyA8-MDR cells [1]),Incidence (%) (HeyA8-MDR cells [1]),No. Nodules (HeyA8-MDR cells [1]),Incidence (%) (SKOV3ip1 cells),No. Nodules (SKOV3ip1 cells),"fold greater docetaxel cytotoxicity after FAK down-regulation (SKOV3 cells [2]; SKOV3, siRNA 48 hours before docetaxel, at 50% cytotoxicity) [fold]",fold increase in sensitivity to docetaxel (HeyA8-MDR cells [3]) [fold],apoptosis in combination with docetaxel (SKOV3 cells [4]),efficacy compared with empty liposomes (SKOV3ip1 cells),effect on sensitivity to docetaxel (SKOV3 cells [2]; all ovarian cancer cell lines tested)
"FAK siRNA: sense r(CCACCUGGGCCAGUAUUAU)d(TT), antisense r(AUAAUACUGGCCCAGGUGG)d(TT); for in vivo delivery incorporated into DOPC (sense CCACCUGGGCCAGUAUUAUTT; antisense AUAAUACUGGCCCAGGUGGTT; sugars from the 5' end r19 d2, backbone not given here)",not altered,about 44%,70,2.1,70,3.7,~5,5.5,,,
"control siRNA: sense r(UUUUCCGAACGUGUCACGU)dTT, antisense r(ACGUGACACGUUCGGAGAA)dTT, no homology with human mRNA; in vivo in DOPC (sense UUUUCCGAACGUGUCACGUTT; antisense ACGUGACACGUUCGGAGAATT; sugars from the 5' end r19 d2, backbone not given here)",,,90,4.4,100,15,,,did not enhance apoptosis in combination with docetaxel,not effective against SKOV3ip1 tumors,did not affect sensitivity of ovarian cancer cells to docetaxel
